The source of these data is the NIST ThermoML archive (doi:10.1016/j.jct.2009.05.005).

The structures appear in SMILES notation. Numbers after ± are expanded uncertainties.

This data set can be described thus: xn = mol fraction of the nth substance listed. Particulars: 298.15 K, 101 kPa, Liquid, Vibrating tube method.

Regarding `CC1(C)[C@H]2CC[C@]1(CS(=O)(=O)O)C(=O)C2` [(1R)-(-)-10-camphorsulfonic acid] + CCO, the mass density is, setting by setting: (x1 = 0.001067) 787.036 ± 0.15 kg/m3; (x1 = 0.001496) 787.969 ± 0.15 kg/m3; (x1 = 0.002271) 789.366 ± 0.15 kg/m3.

Consider `CC1(C)[C@H]2CC[C@]1(CS(=O)(=O)Cl)C(=O)C2` [(1R)-(-)-10-camphorsulfonyl chloride] + CCO, for which the mass density reads like this: (x1 = 0.0006848) 786.329 ± 0.15 kg/m3; (x1 = 0.001385) 787.654 ± 0.15 kg/m3; (x1 = 0.002039) 788.885 ± 0.15 kg/m3.

For the molecule `CC1(C)[C@H]2CC[C@]1(C)C(=O)C2` [(1S)-1,7,7-trimethylbicyclo[2.2.1]heptan-2-one] + CCO, the mass density reads like this: (x1 = 0.001613) 786.229 ± 0.15 kg/m3; (x1 = 0.003055) 786.828 ± 0.15 kg/m3; (x1 = 0.009161) 788.869 ± 0.15 kg/m3; (x1 = 0.01574) 789.42 ± 0.15 kg/m3.

Consider `CC1(C)[C@@H]2CC[C@@]1(CS(N)(=O)=O)C(=O)C2` [(1S)-(+)-10-camphorsulfonamide] + CCO, for which the mass density runs as follows: (x1 = 9.665e-05) 785.188 ± 0.15 kg/m3; (x1 = 0.001502) 787.624 ± 0.15 kg/m3; (x1 = 0.002013) 788.405 ± 0.15 kg/m3.

In the case of `CC1(C)[C@@H]2CC[C@@]1(CS(=O)(=O)O)C(=O)C2` [(1S)-(+)-10-camphorsulfonic acid] + CCO, the mass density (x1 = 0.001067) amounted to 787.039 ± 0.15 kg/m3, the mass density (x1 = 0.001496) was 787.971 ± 0.15 kg/m3 and the mass density (x1 = 0.002271) is reported as 789.368 ± 0.15 kg/m3.

On to `CC1(C)[C@H]2CC[C@]1(C)C(=O)C2=O` [(+)-camphorquinone] + CCO, for which the mass density reads like this: (x1 = 0.001389) 786.234 ± 0.15 kg/m3; (x1 = 0.00209) 786.827 ± 0.15 kg/m3; (x1 = 0.002792) 787.377 ± 0.15 kg/m3.

As for `CC1(C)[C@@H]2CC[C@@]1(C)C(=O)C2=O` [(-)-camphorquinone] + CCO, the mass density by setting is: (x1 = 0.001389) 786.235 ± 0.15 kg/m3; (x1 = 0.00209) 786.827 ± 0.15 kg/m3; (x1 = 0.002792) 787.379 ± 0.15 kg/m3.

Take `CC1(C)C2CCC1(CS(=O)(=O)Cl)C(=O)C2` (stereo not drawn) [d-10-camphorsulfonyl chloride] + CCO: the mass density runs as follows: (x1 = 0.0006848) 786.327 ± 0.15 kg/m3; (x1 = 0.001385) 787.552 ± 0.15 kg/m3; (x1 = 0.002039) 788.887 ± 0.15 kg/m3.

As to `CC1(C)[C@@H]2CC[C@@]1(C)C(=O)C2` [d-camphor] + CCO, the mass density turned out to be 786.229 ± 0.15 kg/m3 (x1 = 0.001613), 786.827 ± 0.15 kg/m3 (x1 = 0.003055), 788.887 ± 0.15 kg/m3 (x1 = 0.009161) and 789.421 ± 0.15 kg/m3 (x1 = 0.01574).

`CCO` [ethanol] + CC1(C)C2CCC1(CS(=O)(=O)Cl)C(=O)C2: the mass density (x2 = 0) is listed as 785.033 ± 0.15 kg/m3.

On to `CCO` [ethanol] + CC1(C)[C@@H]2CC[C@@]1(C)C(=O)C2, for which, under “x2 = 0”, the mass density is 785.055 ± 0.15 kg/m3.

On to `CCO` [ethanol] + CC1(C)[C@@H]2CC[C@@]1(C)C(=O)C2=O, for which, where the note is “x2 = 0”, the mass density turned out to be 785.025 ± 0.15 kg/m3.

For `CCO` [ethanol] + CC1(C)[C@@H]2CC[C@@]1(CS(=O)(=O)O)C(=O)C2, the mass density (x2 = 0) is given as 785.026 ± 0.15 kg/m3.

Take `CCO` [ethanol] + CC1(C)[C@@H]2CC[C@@]1(CS(N)(=O)=O)C(=O)C2: for the setting “x2 = 0”, the mass density worked out at 785.013 ± 0.15 kg/m3.

For `CCO` [ethanol] + CC1(C)[C@H]2CC[C@]1(C)C(=O)C2, under “x2 = 0”, the mass density is 785.056 ± 0.15 kg/m3.

For the molecule `CCO` [ethanol] + CC1(C)[C@H]2CC[C@]1(C)C(=O)C2=O, for the setting “x2 = 0”, the mass density came to 785.022 ± 0.15 kg/m3.

In the case of `CCO` [ethanol] + CC1(C)[C@H]2CC[C@]1(CS(=O)(=O)Cl)C(=O)C2, the mass density (x2 = 0) is listed as 785.035 ± 0.15 kg/m3.

In the case of `CCO` [ethanol] + CC1(C)[C@H]2CC[C@]1(CS(=O)(=O)O)C(=O)C2, the mass density (x2 = 0) turned out to be 785.024 ± 0.15 kg/m3.

What is called mass density is mass per unit of volume.
